Experimental data from patent US20230085307A1, “PYRIDAZINONE COMPOUND AND HERBICIDE” (NISSAN CHEMICAL CORPORATION, priority 2019, published 2023).

Assays:
wild oat [1] = assay: Test Example 5: herbicidal effect by foliage application, plastic box (Table 20, symbol I); type: in vivo, wild oat (Avena fatua); conditions: foliage application, 320 g/ha, evaluated three weeks after application
How it was run: (§1)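 Sow seeds spot-wise in sterilized diluvial soil; cover with ~1.5 cm soil. Grow 14 days in greenhouse, 25° C. to 30° C. Spray foliage with emulsion diluted to predetermined amount. Rate effect after 3 weeks.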

chickweed [2] = assay: Test Example 4: herbicidal effect by soil treatment (Table 19, symbol P); type: in vivo, common chickweed (Stellaria media); conditions: 320 g/ha
How it was run: (§2)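 Applied as a water-diluted emulsion, the compound was sprayed onto soil covering newly sown seeds. Evaluation came three weeks after application, in a greenhouse held at 25° C. to 30° C.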

persian speedwell [3] = assay: Test Example 5: herbicidal effect by foliage application, plastic box (Table 20, symbol R); type: in vivo, Persian speedwell (Veronica persica); conditions: foliage application, 320 g/ha, evaluated three weeks after application
How it was run: as §1

windgrass [4] = assay: Test Example 4: herbicidal effect by soil treatment (Table 19, symbol L); type: in vivo, windgrass (Apera spica-venti); conditions: 320 g/ha
How it was run: as §2

rice flat sedge = assay: Test Example 3: herbicidal effect by foliage application, Wagner pot (Table 18, symbol E); type: in vivo, rice flat sedge (Cyperus iria); conditions: 320 g/ha
How it was run: (§3)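 Plants were sown in alluvial soil held under 0.1–0.5 cm standing water and grown 14 days in a greenhouse at 25–30 °C. An emulsifiable formulation, water-diluted to the set dose, was then sprayed onto the foliage, and effects were scored three weeks later using previously defined criteria.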

lambsquarters [5] = assay: Test Example 5: herbicidal effect by foliage application, plastic box (Table 20, symbol O); type: in vivo, lambsquarters (Chenopodium album); conditions: foliage application, 320 g/ha, evaluated three weeks after application
How it was run: as §1

chickweed [6] = assay: Test Example 5: herbicidal effect by foliage application, plastic box (Table 20, symbol P); type: in vivo, common chickweed (Stellaria media); conditions: foliage application, 320 g/ha, evaluated three weeks after application
How it was run: as §1

blackgrass [7] = assay: Test Example 4: herbicidal effect by soil treatment (Table 19, symbol J); type: in vivo, blackgrass (Alopecurus myosuroides); conditions: 320 g/ha
How it was run: as §2

barnyard grass [8] = assay: Test Example 4: herbicidal effect by soil treatment (Table 19, symbol H); type: in vivo, barnyard grass (Echinochloa crus-galli); conditions: 320 g/ha
How it was run: as §2

green foxtail [9] = assay: Test Example 4: herbicidal effect by soil treatment (Table 19, symbol G); type: in vivo, green foxtail (Setaria viridis); conditions: 320 g/ha
How it was run: as §2

velvetleaf [10] = assay: Test Example 4: herbicidal effect by soil treatment (Table 19, symbol M); type: in vivo, velvetleaf (Abutilon theophrasti); conditions: 320 g/ha
How it was run: as §2

barnyard grass [11] = assay: Test Example 5: herbicidal effect by foliage application, plastic box (Table 20, symbol H); type: in vivo, barnyard grass (Echinochloa crus-galli); conditions: foliage application, 320 g/ha, evaluated three weeks after application
How it was run: as §1

Italian ryegrass [12] = assay: Test Example 5: herbicidal effect by foliage application, plastic box (Table 20, symbol K); type: in vivo, Italian ryegrass (Lolium multiflorum); conditions: foliage application, 320 g/ha, evaluated three weeks after application
How it was run: as §1

late watergrass = assay: Test Example 2: herbicidal activity, application during weed generation under submerged conditions (Table 17, symbol A); type: in vivo, late watergrass (Echinochloa oryzicola); conditions: AAH 320 g/ha; application during weed generation, submerged conditions
How it was run: (§4)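 In this pot test, flooded alluvial soil (water depth 4 cm) holds all three species sown as a mixture. Once seedlings have one to two leaves, the compound's emulsion, thinned with water to the intended dose, is poured on the water; grading follows after three weeks on the earlier criteria.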

blackgrass [13] = assay: Test Example 5: herbicidal effect by foliage application, plastic box (Table 20, symbol J); type: in vivo, blackgrass (Alopecurus myosuroides); conditions: foliage application, 320 g/ha, evaluated three weeks after application
How it was run: as §1

lambsquarters [14] = assay: Test Example 4: herbicidal effect by soil treatment (Table 19, symbol O); type: in vivo, lambsquarters (Chenopodium album); conditions: 320 g/ha
How it was run: as §2

redroot pigweed [15] = assay: Test Example 5: herbicidal effect by foliage application, plastic box (Table 20, symbol N); type: in vivo, redroot pigweed (Amaranthus retroflexus); conditions: foliage application, 320 g/ha, evaluated three weeks after application
How it was run: as §1

windgrass [16] = assay: Test Example 5: herbicidal effect by foliage application, plastic box (Table 20, symbol L); type: in vivo, windgrass (Apera spica-venti); conditions: foliage application, 320 g/ha, evaluated three weeks after application
How it was run: as §1

Japanese bulrush = assay: Test Example 2: herbicidal activity, application during weed generation under submerged conditions (Table 17, symbol B); type: in vivo, Japanese bulrush (Schoenoplectus juncoides); conditions: AAH 320 g/ha; application during weed generation, submerged conditions
How it was run: as §4

southern crabgrass [17] = assay: Test Example 4: herbicidal effect by soil treatment (Table 19, symbol F); type: in vivo, southern crabgrass (Digitaria ciliaris); conditions: 320 g/ha
How it was run: as §2

redroot pigweed [18] = assay: Test Example 4: herbicidal effect by soil treatment (Table 19, symbol N); type: in vivo, redroot pigweed (Amaranthus retroflexus); conditions: 320 g/ha
How it was run: as §2

Chinese sprangletop = assay: Test Example 3: herbicidal effect by foliage application, Wagner pot (Table 18, symbol D); type: in vivo, chinese sprangletop (Leptochloa chinensis); conditions: 320 g/ha
How it was run: as §3

velvetleaf [19] = assay: Test Example 5: herbicidal effect by foliage application, plastic box (Table 20, symbol M); type: in vivo, velvetleaf (Abutilon theophrasti); conditions: foliage application, 320 g/ha, evaluated three weeks after application
How it was run: as §1

green foxtail [20] = assay: Test Example 5: herbicidal effect by foliage application, plastic box (Table 20, symbol G); type: in vivo, green foxtail (Setaria viridis); conditions: foliage application, 320 g/ha, evaluated three weeks after application
How it was run: as §1

southern crabgrass [21] = assay: Test Example 5: herbicidal effect by foliage application, plastic box (Table 20, symbol F); type: in vivo, southern crabgrass (Digitaria ciliaris); conditions: foliage application, 320 g/ha, evaluated three weeks after application
How it was run: as §1

barnyard grass [22] = assay: Test Example 3: herbicidal effect by foliage application, Wagner pot (Table 18, symbol H); type: in vivo, barnyard grass (Echinochloa crus-galli); conditions: 320 g/ha
How it was run: as §3

Italian ryegrass [23] = assay: Test Example 4: herbicidal effect by soil treatment (Table 19, symbol K); type: in vivo, Italian ryegrass (Lolium multiflorum); conditions: 320 g/ha
How it was run: as §2

persian speedwell [24] = assay: Test Example 4: herbicidal effect by soil treatment (Table 19, symbol R); type: in vivo, Persian speedwell (Veronica persica); conditions: 320 g/ha
How it was run: as §2

oval-leafed pondweed = assay: Test Example 2: herbicidal activity, application during weed generation under submerged conditions (Table 17, symbol C); type: in vivo, oval-leafed pondweed (Monochoria vaginalis); conditions: AAH 320 g/ha; application during weed generation, submerged conditions
How it was run: as §4

wild oat [25] = assay: Test Example 4: herbicidal effect by soil treatment (Table 19, symbol I); type: in vivo, wild oat (Avena fatua); conditions: 320 g/ha
How it was run: as §2

Row | Structure (SMILES) | herbicidal effect on I: wild oat (wild oat [1]) | herbicidal effect rating, P: chickweed (chickweed [2]) | herbicidal effect on R: persian speedwell (persian speedwell [3]) | herbicidal effect rating, L: windgrass (windgrass [4]) | herbicidal effect on E (rice flat sedge), rating 0-5 (rice flat sedge) | herbicidal effect on O: lambsquarters (lambsquarters [5]) | herbicidal effect on P: chickweed (chickweed [6]) | herbicidal effect rating, J: blackgrass (blackgrass [7]) | herbicidal effect rating, H: barnyard grass (barnyard grass [8]) | herbicidal effect rating, G: green foxtail (green foxtail [9]) | herbicidal effect rating, M: velvetleaf (velvetleaf [10]) | herbicidal effect on H: barnyard grass (barnyard grass [11]) | herbicidal effect on K: Italian ryegrass (Italian ryegrass [12]) | herbicidal effect rating, A: late watergrass (late watergrass) | herbicidal effect on J: blackgrass (blackgrass [13]) | herbicidal effect rating, O: lambsquarters (lambsquarters [14]) | herbicidal effect on N: redroot pigweed (redroot pigweed [15]) | herbicidal effect on L: windgrass (windgrass [16]) | herbicidal effect rating, B: Japanese bulrush (Japanese bulrush) | herbicidal effect rating, F: southern crabgrass (southern crabgrass [17]) | other results
1 | CC(=O)COc1ccc(-c2sc3ccc(F)cc3c2-c2c(O)c(C)nn(C)c2=O)cc1 [2-068] | 4 (Herbicidal rate of 70% or more and less than 90%) | 0 (Herbicidal rate of 5% or less (almost no effect)) | 5 (Herbicidal rate of 90% or more (almost completely withered)) | 0 (Herbicidal rate of 5% or less (almost no effect)) | 5 (Herbicidal rate of 90% or more (almost completely withered)) | 5 (Herbicidal rate of 90% or more (almost completely withered)) | 5 (Herbicidal rate of 90% or more (almost completely withered)) | 0 (Herbicidal rate of 5% or less (almost no effect)) | 3 (Herbicidal rate of 40% or more and less than 70%) | 4 (Herbicidal rate of 70% or more and less than 90%) | 5 (Herbicidal rate of 90% or more (almost completely withered)) | 5 (Herbicidal rate of 90% or more (almost completely withered)) | 3 (Herbicidal rate of 40% or more and less than 70%) | 2 (Herbicidal rate of 20% or more and less than 40%) | 4 (Herbicidal rate of 70% or more and less than 90%) | 4 (Herbicidal rate of 70% or more and less than 90%) | 5 (Herbicidal rate of 90% or more (almost completely withered)) | 5 (Herbicidal rate of 90% or more (almost completely withered)) | 3 (Herbicidal rate of 40% or more and less than 70%) | 1 (Herbicidal rate of 5% or more and less than 20%) | herbicidal effect rating, N: redroot pigweed (redroot pigweed [18]): 5 (Herbicidal rate of 90% or more (almost completely withered)); herbicidal effect on D (Chinese sprangletop), rating 0-5 (Chinese sprangletop): 4 (Herbicidal rate of 70% or more and less than 90%); herbicidal effect on M: velvetleaf (velvetleaf [19]): 5 (Herbicidal rate of 90% or more (almost completely withered)); herbicidal effect on G: green foxtail (green foxtail [20]): 5 (Herbicidal rate of 90% or more (almost completely withered)); herbicidal effect on F: southern crabgrass (southern crabgrass [21]): 5 (Herbicidal rate of 90% or more (almost completely withered)); herbicidal effect on H (barnyard grass), rating 0-5 (barnyard grass [22]): 5 (Herbicidal rate of 90% or more (almost completely withered)); herbicidal effect rating, K: Italian ryegrass (Italian ryegrass [23]): 0 (Herbicidal rate of 5% or less (almost no effect)); herbicidal effect rating, R: persian speedwell (persian speedwell [24]): 4 (Herbicidal rate of 70% or more and less than 90%); herbicidal effect rating, C: oval-leafed pondweed (oval-leafed pondweed): 3 (Herbicidal rate of 40% or more and less than 70%); herbicidal effect rating, I: wild oat (wild oat [25]): 0 (Herbicidal rate of 5% or less (almost no effect))
2 | Cc1nn(C)c(=O)c(-c2c(-c3ccc(OC4CCOC4)cc3)sc3ccc(F)cc23)c1O (stereo not drawn) [2-074] | 4 (Herbicidal rate of 70% or more and less than 90%) | 3 (Herbicidal rate of 40% or more and less than 70%) | 5 (Herbicidal rate of 90% or more (almost completely withered)) | 3 (Herbicidal rate of 40% or more and less than 70%) | 5 (Herbicidal rate of 90% or more (almost completely withered)) | 5 (Herbicidal rate of 90% or more (almost completely withered)) | 5 (Herbicidal rate of 90% or more (almost completely withered)) | 1 (Herbicidal rate of 5% or more and less than 20%) | 5 (Herbicidal rate of 90% or more (almost completely withered)) | 5 (Herbicidal rate of 90% or more (almost completely withered)) | 3 (Herbicidal rate of 40% or more and less than 70%) | 5 (Herbicidal rate of 90% or more (almost completely withered)) | 4 (Herbicidal rate of 70% or more and less than 90%) | 0 (Herbicidal rate of 5% or less (almost no effect)) | 5 (Herbicidal rate of 90% or more (almost completely withered)) | 5 (Herbicidal rate of 90% or more (almost completely withered)) | 5 (Herbicidal rate of 90% or more (almost completely withered)) | 5 (Herbicidal rate of 90% or more (almost completely withered)) | 3 (Herbicidal rate of 40% or more and less than 70%) | 5 (Herbicidal rate of 90% or more (almost completely withered)) | herbicidal effect rating, N: redroot pigweed (redroot pigweed [18]): 5 (Herbicidal rate of 90% or more (almost completely withered)); herbicidal effect on D (Chinese sprangletop), rating 0-5 (Chinese sprangletop): 5 (Herbicidal rate of 90% or more (almost completely withered)); herbicidal effect on M: velvetleaf (velvetleaf [19]): 5 (Herbicidal rate of 90% or more (almost completely withered)); herbicidal effect on G: green foxtail (green foxtail [20]): 5 (Herbicidal rate of 90% or more (almost completely withered)); herbicidal effect on F: southern crabgrass (southern crabgrass [21]): 5 (Herbicidal rate of 90% or more (almost completely withered)); herbicidal effect on H (barnyard grass), rating 0-5 (barnyard grass [22]): 5 (Herbicidal rate of 90% or more (almost completely withered)); herbicidal effect rating, K: Italian ryegrass (Italian ryegrass [23]): 3 (Herbicidal rate of 40% or more and less than 70%); herbicidal effect rating, R: persian speedwell (persian speedwell [24]): 5 (Herbicidal rate of 90% or more (almost completely withered)); herbicidal effect rating, C: oval-leafed pondweed (oval-leafed pondweed): 0 (Herbicidal rate of 5% or less (almost no effect)); herbicidal effect rating, I: wild oat (wild oat [25]): 0 (Herbicidal rate of 5% or less (almost no effect))
